The target in this assay is T1, human histamine H4 receptor (Homo sapiens, UniProt Q9H3N8).
T1 construct: expressed in transfected cells; host or cells: SK-N-MC cells or COS7 cells, transient transfection with pH4R; cell membranes
Nature of the assay: Binding Assay on Recombinant Human Histamine H4 Receptor. The following applies: competition binding with 3H-histamine (5 nM; KD 5 nM), membranes of SK-N-MC or COS7 cells expressing human H4 receptor; average of results; > = highest value tested. An outline of the steps:
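Membranes from SK-N-MC or COS7 cells transiently transfected with H4R incubated 45 min at room temperature with ³H-histamine; nonspecific binding defined with 10,000 nM histamine. Filtration and scintillation counting. Ki from competition with 5 nM ³H-histamine, using a KD of 5 nM.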

Bounds are passed on as bounds.

T1 sequence (Q9H3N8 whole entry): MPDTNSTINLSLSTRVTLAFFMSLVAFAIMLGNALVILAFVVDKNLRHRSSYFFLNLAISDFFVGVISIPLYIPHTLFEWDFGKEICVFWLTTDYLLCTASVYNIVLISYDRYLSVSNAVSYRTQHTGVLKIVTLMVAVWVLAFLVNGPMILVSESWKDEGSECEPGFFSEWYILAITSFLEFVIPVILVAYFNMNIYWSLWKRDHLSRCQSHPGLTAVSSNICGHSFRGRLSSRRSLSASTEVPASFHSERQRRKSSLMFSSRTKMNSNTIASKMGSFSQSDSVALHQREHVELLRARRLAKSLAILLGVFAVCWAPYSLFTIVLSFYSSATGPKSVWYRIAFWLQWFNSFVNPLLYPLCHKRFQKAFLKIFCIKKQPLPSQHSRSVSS

For orientation: Ki means the dissociation constant of the complex between target and ligand, obtained from inhibition or displacement. As to `Cc1ccc2[nH]c(-c3cc4ccn(CCCC5CCNCC5)c4cc3Cl)nc2c1C` [Example 100, 2-[6-Chloro-1-(3-piieridin-4-yl-propyl)-1H-indol-5-yl]-4,5-dimethyl-1H-benzoimidazole], the Ki is 3330 nM. As for `Clc1ccc2[nH]c(-c3cc4ccn(CCCC5CCNCC5)c4cc3Cl)nc2c1` [Example 101, 5-Chloro-2-[6-chloro-1-(3-piperidin-4-yl-propyl)-1H-indol-5-yl]-1H-benzoimidazole], the figure is 3330 nM; as for `CN1CCC(CCCn2ccc3cc(-c4nc5cc(Cl)ccc5[nH]4)c(Cl)cc32)CC1` [Example 102, 5-Chloro-2-{6-chloro-1-[3-(1-methyl-piperidin-4-yl)-propyl]-1H-indol-5-yl}-1H-benzoimidazole], greater than 10000 nM; as for `Cc1ccc2[nH]c(-c3cc4ccn(CCCC5CCN(C)CC5)c4cc3Cl)nc2c1C` [Example 103, 2-{6-Chloro-1-[3-(1-methyl-piperidin-4-yl)-propyl]-1H-indol-5-yl}-4,5-dimethyl-1H-benzoimidazole], 2770 nM.

Take `Cc1cc(Cl)cc2[nH]c(-c3cccc4c3ccn4CCCCC3CCNCC3)nc12` [Example 104, 6-Chloro-4-methyl-2-[1-(4-piperidin-4-yl-butyl)-1H-indol-4-yl]-1H-benzoimidazole]: the Ki stood at 2330 nM. As for `CC(C)(C)c1ccc2[nH]c(-c3cccc4c3ccn4CCCCC3CCNCC3)nc2c1` [Example 105, 5-tert-Butyl-2-[1-(4-piperidin-4-yl-butyl)-1H-indol-4-yl]-1H-benzoimidazole], the Ki was found to be 2660 nM. Under `Cc1ccc2[nH]c(-c3cccc4c3ccn4CCCCC3CCNCC3)nc2c1C` [Example 106, 6,7-Dimethyl-2-[1-(4-piperidin-4-yl-butyl)-1H-indol-4-yl]-1H-benzoimidazole] stands 2640 nM; under `Cc1cccc2[nH]c(-c3ccc4ccn(CCCCC5CCNCC5)c4c3)nc12` [Example 107, 4-Methyl-2-[1-(4-piperidin-4-yl-butyl)-1H-indol-6-yl]-1H-benzoimidazole], greater than 10000 nM. For the compound `Cc1cc(Cl)cc2[nH]c(-c3ccc4ccn(CCCCC5CCNCC5)c4c3)nc12` [Example 108], the inhibitory constant (Ki) came out at 2000 nM. With `CC(C)(C)c1ccc2[nH]c(-c3ccc4ccn(CCCCC5CCNCC5)c4c3)nc2c1` [Example 109, 5-tert-Butyl-2-[1-(4-piperidin-4-yl-butyl)-1H-indol-6-yl]-1H-benzoimidazole], the Ki is 2670 nM.

Regarding `Fc1ccc2[nH]c(-c3cccc4c3ccn4CCCCC3CCNCC3)nc2c1F` [Example 110, 4,5-Difluoro-2-[1-(4-piperidin-4-yl-butyl)-1H-indol-4-yl]-1H-benzoimidazole], the Ki worked out at 3330 nM. As for `Cc1cccc2[nH]c(-c3ccc4c(ncn4CCCC4CCNCC4)c3C)nc12` [Example 111, 4,4′-Dimethyl-1′-(3-piperidin-4-yl-propyl)-1H,1′H-[2,5′]bibenzoimidazolyl], the Ki turned out to be 478 nM. As for `Cc1cc(F)cc2[nH]c(-c3ccc4c(ncn4CCCC4CCNCC4)c3C)nc12` [Example 112, 6-Fluoro-4,4′-dimethyl-1′-(3-piperidin-4-yl-propyl)-1H,1′H-[2,5′]bibenzoimidazolyl], the Ki came to 251 nM. Consider `Cc1c(Cl)ccc2[nH]c(-c3ccc4c(ncn4CCCC4CCNCC4)c3C)nc12` [Example 113, 5-Chloro-4,4′-dimethyl-1′-(3-piperidin-4-yl-propyl)-1H,1′H-[2,5′]bibenzoimidazolyl], for which the Ki amounted to 165 nM. Regarding `Cc1c(F)ccc2[nH]c(-c3ccc4c(ncn4CCCC4CCNCC4)c3C)nc12` [Example 114, 5-Fluoro-4,4′-dimethyl-1′-(3-piperidin-4-yl-propyl)-1H,1′H-[2,5′]bibenzoimidazolyl], the Ki was 205 nM.

With `Fc1ccc2[nH]c(-c3cccc4c3ccn4CCCCC3CCNCC3)nc2c1` [Example 115, 5-Fluoro-2-[1-(4-piperidin-4-yl-butyl)-1H-indol-4-yl]-1H-benzoimidazole], the Ki was greater than 10000 nM.

On to `Fc1cc(F)c2nc(-c3cccc4c3ccn4CCCCC3CCNCC3)[nH]c2c1` [Example 116, 4,6-Difluoro-2-[1-(4-piperidin-4-yl-butyl)-1H-indol-4-yl]-1H-benzoimidazole], for which the Ki was 3330 nM. As for `Cc1cccc2[nH]c(-c3ccc4c(c3)ncn4CCCCC3CCNCC3)nc12` [Example 117, 4-Methyl-1′-(4-piperidin-4-yl-butyl)-1H,1′H-[2.5′]bibenzoimidazolyl], the figure is greater than 10000 nM. Under `Cc1ccc2[nH]c(-c3ccc4c(c3)ncn4CCCCC3CCNCC3)nc2c1C` [Example 118] stands 3000 nM. As for `CN1CCC(CCCCn2cnc3cc(-c4nc5cc(F)ccc5[nH]4)ccc32)CC1` [Example 120, 5-Fluoro-1′-[4-(1-methyl-piperidin-4-yl)-butyl]-1H,1′H-[2,5′]bibenzoimidazolyl], the Ki came out at 3330 nM. Under `Cc1ccc2[nH]c(-c3ccc4c(c3)ncn4CCCCC3CCN(C)CC3)nc2c1C` [Example 121, 4,5-Dimethyl-1′-[4-(1-methyl-piperidin-4-yl)-butyl]-1H,1′H-[2,5′]bibenzoimidazolyl] stands 3000 nM. Under `Cc1cccc2[nH]c(-c3ccc4ncn(CCCCC5CCNCC5)c4c3)nc12` [Example 122, 4-Methyl-3′-(4-piperidin-4-yl-butyl)-1H,3′H-[2,5′]bibenzoimidazolyl] stands 1670 nM. Under `Cc1ccc2[nH]c(-c3ccc4ncn(CCCCC5CCNCC5)c4c3)nc2c1C` [Example 123, 4,5-Dimethyl-3′-(4-piperidin-4-yl-butyl)-1H,3′H-[2,5′]bibenzoimidazolyl] stands 3330 nM. For the compound `Fc1ccc2[nH]c(-c3ccc4ncn(CCCCC5CCNCC5)c4c3)nc2c1` [Example 124, 5-Fluoro-3′-(4-piperidin-4-yl-butyl)-1H,3′H-[2,5′]bibenzoimidazolyl], the Ki is greater than 10000 nM. On to `Cc1ccc2[nH]c(-c3ccc4ncn(CCCCC5CCN(C)CC5)c4c3)nc2c1C` [Example 125, 4,5-Dimethyl-3′-[4-(1-methyl-piperidin-4-yl)-butyl]-1H,3′H-[2,5′]bibenzoimidazolyl], for which the Ki came out at 2670 nM.

With `CN1CCC(CCCCn2cnc3ccc(-c4nc5cc(F)ccc5[nH]4)cc32)CC1` [Example 126, 5-Fluoro-3′-[4-(1-methyl-piperidin-4-yl)-butyl]-1H,3′H [2,5′]bibenzoimidazolyl], the Ki is greater than 10000 nM. Under `c1ccc2cc3[nH]c(-c4cccc5c4ccn5CCCCC4CCNCC4)nc3cc2c1` [Example 127, 2-[1-(4-Piperidin-4-yl-butyl)-1H-indol-4-yl]-1H-naphtho[2,3-d]imidazole] stands 2100 nM.

As to `O=C(c1ccccc1)c1ccc2[nH]c(-c3cccc4c3c(Cl)cn4CCCCC3CCNCC3)nc2c1` [Example 129, {2-[3-Chloro-1-(4-piperidin-4-yl-butyl)-1H-indol-4-yl]-1H-benzoimidazol-5-yl}-phenyl-methanone], the Ki is 2000 nM. Under `FC(F)(F)c1ccc2[nH]c(-c3cccc4c3c(Cl)cn4CCCCC3CCNCC3)nc2c1` [Example 130, 2-[3-Chloro-1-(4-piperidin-4-yl-butyl)-1H-indol-4-yl]-5-trifluoromethyl-1H-benzoimidazole] stands greater than 10000 nM; under `Fc1cc2nc(-c3cccc4c3c(Cl)cn4CCCCC3CCNCC3)[nH]c2cc1F` [Example 131, 2-[3-Chloro-1-(4-piperidin-4-yl-butyl)-1H-indol-4-yl]-5,6-difluoro-1H-benzoimidazole], 3330 nM; under `Fc1ccc2[nH]c(-c3cccc4c3c(Cl)cn4CCCCC3CCNCC3)nc2c1F` [Example 132, 2-[3-Chloro-1-(4-piperidin-4-yl-butyl)-1H-indol-4-yl]-4,5-difluoro-1H-benzoimidazole], 3330 nM.

For `Cc1c(F)ccc2[nH]c(-c3cccc4c3c(Cl)cn4CCCCC3CCNCC3)nc12` [Example 133, 2-[3-Chloro-1-(4-piperidin-4-yl-butyl)-1H-indol-4-yl]-5-fluoro-4-methyl-1H-benzoimidazole], the Ki was greater than 10000 nM.

On to `Cc1nc2ccc3nc(-c4cccc5c4c(Cl)cn5CCCCC4CCNCC4)[nH]c3c2s1` [Example 134, 7-[3-Chloro-1-(4-piperidin-4-yl-butyl)-1H-indol-4-yl]-2-methyl-8H-imidazo[4′,5′:3,4]benzo[1,2-d]thiazole], for which the Ki was greater than 10000 nM. Regarding `COC(=O)c1ccc2nc(-c3cccc4c3c(Cl)cn4CCCCC3CCNCC3)[nH]c2c1` [Example 135, 2-[3-Chloro-1-(4-piperidin-4-yl-butyl)-1H-indol-4-yl]-3H-benzoimidazole-5-carboxylic acid methyl ester], the Ki is greater than 10000 nM. Under `Cc1nc2ccc3nc(-c4cccc5c4c(Cl)cn5CCCCC4CCN(C)CC4)[nH]c3c2s1` [Example 136, 7-{3-Chloro-1-[4-(1-methyl-piperidin-4-yl)-butyl]-1H-indol-4-yl}-2-methyl-8H-imidazo[4′,5′:3,4]benzo[1,2-d]thiazole] stands 941 nM. As for `COC(=O)c1ccc2nc(-c3cccc4c3c(Cl)cn4CCCCC3CCN(C)CC3)[nH]c2c1` [Example 137, 2-{3-Chloro-1-[4-(1-methyl-piperidin-4-yl)-butyl]-1H-indol-4-yl}-3H-benzoimidazole-5-carboxylic acid methyl ester], the figure is 2880 nM; as for `Cc1ccc2[nH]c(-c3ccc4c(ncn4CCCC4CCNCC4)c3C)nc2c1C` [Example 138, 4,5,4′-Trimethyl-1′-(3-piperidin-4-yl-propyl)-1H,1′H-[2,5′]bibenzoimidazolyl], 429 nM; as for `Cc1cc(C)c2nc(-c3cccc4c3ccn4CCCCC3CCNCC3)[nH]c2c1` [Example 139, 4,6-Dimethyl-2-[1-(4-piperidin-4-yl-butyl)-1H-indol-4-yl]-1H-benzoimidazole], 2640 nM. In the case of `Clc1ccc2nc(-c3cccc4c3ccn4CCCCC3CCNCC3)[nH]c2c1` [Example 140, 6-Chloro-2-[1-(4-piperidin-4-yl-butyl)-1H-indol-4-yl]-1H-benzoimidazole], the Ki stood at 3330 nM.

(Values after patent publication US8084466B2, “Bicyclic heteroaryl-substituted imidazoles as modulators of the histamine H4 receptor” (Janssen Pharmaceutica NV, priority 2007, dated 2011).)
